Data on seven molecules can be found in BindingDB's records for doi:10.3109/14756366.2010.548329 (Sun Yat-sen University, 2011).

One experiment addresses Cholinesterase (Equus caballus, UniProt P81908). The experiment in a line: Enzyme Inhibition Assay. As to conditions: pH 8; 37 °C. The procedure: (§1) Enzyme solutions were prepared to give 2.0 units/mL in 2 mL aliquots. The assay medium contained phosphate buffer, pH 8.0 (1 mL), 50 μL of 0.01 M DTNB, 10 μL of enzyme, and 50 μL of 0.01 M substrate (ATC). The substrate was added to the assay medium containing enzyme, buffer, and DTNB with inhibitor after 15 min of incubation time. […] In vitro BuChE assay use the similar method described above.

A further experiment addresses Acetylcholinesterase (Electrophorus electricus, UniProt O42275). Put plainly: Enzyme Inhibition Assay. Particulars: pH 8; 37 °C. The procedure:
as §1

Chain of Acetylcholinesterase (O42275 whole entry): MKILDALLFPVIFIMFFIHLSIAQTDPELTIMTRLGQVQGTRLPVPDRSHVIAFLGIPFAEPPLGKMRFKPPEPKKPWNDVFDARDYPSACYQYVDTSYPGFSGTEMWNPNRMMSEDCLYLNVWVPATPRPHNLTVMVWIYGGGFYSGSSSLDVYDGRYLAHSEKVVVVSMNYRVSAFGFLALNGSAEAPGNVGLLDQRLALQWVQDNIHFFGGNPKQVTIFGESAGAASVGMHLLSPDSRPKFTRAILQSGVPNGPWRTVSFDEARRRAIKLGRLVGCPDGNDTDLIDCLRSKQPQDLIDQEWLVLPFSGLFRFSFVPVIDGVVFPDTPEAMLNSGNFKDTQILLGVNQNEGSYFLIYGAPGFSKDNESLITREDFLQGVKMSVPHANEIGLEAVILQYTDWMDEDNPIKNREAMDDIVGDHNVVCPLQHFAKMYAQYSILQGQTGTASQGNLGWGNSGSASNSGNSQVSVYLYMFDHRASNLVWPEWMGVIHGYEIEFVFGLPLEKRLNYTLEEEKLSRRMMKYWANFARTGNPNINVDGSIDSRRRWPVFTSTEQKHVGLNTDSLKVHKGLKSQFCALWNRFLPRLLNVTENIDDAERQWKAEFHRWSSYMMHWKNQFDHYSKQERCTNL
Chain of Cholinesterase (P81908 whole entry): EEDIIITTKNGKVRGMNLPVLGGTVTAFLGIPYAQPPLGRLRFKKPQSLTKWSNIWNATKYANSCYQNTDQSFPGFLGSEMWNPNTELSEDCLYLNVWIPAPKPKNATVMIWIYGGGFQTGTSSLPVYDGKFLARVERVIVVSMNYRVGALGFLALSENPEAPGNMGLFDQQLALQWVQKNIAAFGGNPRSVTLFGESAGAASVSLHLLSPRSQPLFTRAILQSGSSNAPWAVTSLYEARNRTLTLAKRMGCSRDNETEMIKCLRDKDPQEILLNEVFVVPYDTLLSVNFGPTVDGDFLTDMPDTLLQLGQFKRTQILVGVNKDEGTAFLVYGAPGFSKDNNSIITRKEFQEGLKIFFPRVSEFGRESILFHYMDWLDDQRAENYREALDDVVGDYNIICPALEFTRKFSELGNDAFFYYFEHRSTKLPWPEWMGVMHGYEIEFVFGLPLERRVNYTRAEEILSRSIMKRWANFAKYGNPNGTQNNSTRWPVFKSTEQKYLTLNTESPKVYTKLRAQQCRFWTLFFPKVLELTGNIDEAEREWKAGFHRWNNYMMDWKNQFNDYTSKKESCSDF

For the molecule `COc1cc(CNCCCCCCCCNCc2cc(OC)c3c(c2)OCO3)cc2c1OCO2` [N1, N8-bis((7-methoxybenzo[d][1,3]dioxol-5-yl)methyl)octane-1,8-diamine (5f)], the figures for the IC50 against Cholinesterase and on Acetylcholinesterase were 3.11 µM and 2.79 µM, respectively.

For the molecule `COc1cc(CNCCCNCc2cc(OC)c3c(c2)OCO3)cc2c1OCO2` [N1,N3-bis((7-methoxybenzo[d][1,3]dioxol-5-yl)methyl)propane-1,3-diamine (5a)], the results for the IC50 on Cholinesterase and at Acetylcholinesterase were 52.3 µM and greater than 125 µM, respectively.

Regarding `COc1cc(CNCCCCNCc2cc(OC)c3c(c2)OCO3)cc2c1OCO2` [N1,N4-bis((7-methoxybenzo[d][1,3]dioxol-5-yl)methyl)butane-1,4-diamine (5b)], the IC50 stood at 12.1 µM on Cholinesterase and 120 µM against Acetylcholinesterase.

In the case of `COc1cc(CNCCCCCNCc2cc(OC)c3c(c2)OCO3)cc2c1OCO2` [N1,N5-bis((7-methoxybenzo[d][1,3]dioxol-5-yl)methyl)pentane-1,5-diamine (5c)], the IC50 against Cholinesterase was determined as 3.35 µM; at Acetylcholinesterase it was 13.2 µM.

As to `COc1cc(CNCCCCCCNCc2cc(OC)c3c(c2)OCO3)cc2c1OCO2` [N1,N6-bis((7-methoxybenzo[d][1,3]dioxol-5-yl)methyl)hexane-1,6-diamine (5d)], the IC50 on Cholinesterase is 2.07 µM; on Acetylcholinesterase, 9.78 µM.

For `COc1cc(CNCCCCCCCNCc2cc(OC)c3c(c2)OCO3)cc2c1OCO2` [N1,N7-bis((7-methoxybenzo[d][1,3]dioxol-5-yl)methyl)heptane-1,7-diamine (5e)], the IC50 is 3.02 µM on Cholinesterase and 4.24 µM on Acetylcholinesterase.

On to `COc1cc(CNCCCCCCCCCNCc2cc(OC)c3c(c2)OCO3)cc2c1OCO2` [N1,N9-bis((7-methoxybenzo[d][1,3]dioxol-5-yl)methyl)nonane-1,9-diamine (5g)], for which the IC50 on Cholinesterase stood at 5.14 µM; on Acetylcholinesterase, 2.76 µM.
